How the values were obtained:
HDAC1 = HDAC1 (Homo sapiens, UniProt Q13547); assay: HDAC enzyme activity assay (fluorogenic substrate), HDAC1; assay type: biochemical; settings: recombinant enzyme; read-out: HDAC1 inhibition (IC50)
HDAC2 = target: T1, HDAC2 (Homo sapiens, UniProt Q92769); assay: HDAC enzyme activity assay (fluorogenic substrate), HDAC2; assay type: biochemical; settings: recombinant enzyme; read-out: HDAC2 inhibition (IC50)
T1 construct: NM_001527; Cat. #50002) is full-length with C-terminal his tag; His (C); purchased BPS Biosciences 50002; host or cells: baculovirus infected Sf9 cells
T1 sequence (Q92769 whole entry): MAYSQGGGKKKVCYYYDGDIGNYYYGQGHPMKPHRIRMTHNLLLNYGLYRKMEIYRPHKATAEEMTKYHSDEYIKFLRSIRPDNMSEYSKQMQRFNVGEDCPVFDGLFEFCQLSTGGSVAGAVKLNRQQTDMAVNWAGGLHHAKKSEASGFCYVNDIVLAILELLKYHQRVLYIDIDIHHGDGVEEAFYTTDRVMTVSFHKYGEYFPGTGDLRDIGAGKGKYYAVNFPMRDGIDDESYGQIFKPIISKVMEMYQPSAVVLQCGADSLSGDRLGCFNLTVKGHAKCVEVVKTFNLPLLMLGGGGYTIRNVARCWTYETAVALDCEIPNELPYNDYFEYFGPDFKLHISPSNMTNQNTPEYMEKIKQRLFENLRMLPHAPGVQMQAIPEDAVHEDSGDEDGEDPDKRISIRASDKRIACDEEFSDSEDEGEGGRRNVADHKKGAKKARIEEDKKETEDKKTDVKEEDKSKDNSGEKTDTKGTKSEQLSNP

HDAC3 = target: T2, HDAC3 (Homo sapiens, UniProt O15379); assay: HDAC enzyme activity assay (fluorogenic substrate), HDAC3; assay type: biochemical; settings: recombinant enzyme; read-out: HDAC3 inhibition (IC50)
T2 construct: is full-length with C-terminal his tag and human NCOR2, N-terminal GST tag; His (C); purchased BPS Biosciences 50003; host or cells: baculovirus infected Sf9 cells
T2 sequence (O15379 whole entry): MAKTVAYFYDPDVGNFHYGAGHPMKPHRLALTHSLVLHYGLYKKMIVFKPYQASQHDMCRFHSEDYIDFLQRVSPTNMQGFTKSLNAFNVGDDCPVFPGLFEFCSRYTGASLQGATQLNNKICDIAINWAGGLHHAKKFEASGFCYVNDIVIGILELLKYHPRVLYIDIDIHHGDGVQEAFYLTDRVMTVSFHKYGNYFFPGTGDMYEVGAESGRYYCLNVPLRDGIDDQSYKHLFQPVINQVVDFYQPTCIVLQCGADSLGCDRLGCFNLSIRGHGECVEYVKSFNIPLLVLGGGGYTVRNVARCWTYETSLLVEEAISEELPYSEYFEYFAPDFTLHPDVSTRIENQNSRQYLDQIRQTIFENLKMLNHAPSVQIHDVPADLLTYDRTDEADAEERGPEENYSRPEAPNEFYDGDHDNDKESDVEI
T2 sequence (Q9Y618 395-489 partner limits assumed): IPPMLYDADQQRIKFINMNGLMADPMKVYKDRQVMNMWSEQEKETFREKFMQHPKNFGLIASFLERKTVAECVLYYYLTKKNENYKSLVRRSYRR

pCREB = assay: PDE activity in wild type primary neurons (Western blot pCREB); assay type: cell-based; settings: Mus musculus, Neuron, 0.5 h, 30 min, EC50 = 50% increase in pCREB over basal
[1] = tested on: acetylated histone 3 at Lys9 (AcH3K9); assay: HDAC activity in wild type primary neurons (Western blot AcH3K9); assay type: cell-based, mouse; settings: Mus musculus, Neuron, 0.5 h, 30 min, EC50 = 50% increase in AcH3K9 over basal, read-out: AcH3 (EC50)
acetylated-α-tubulin = assay: AD-related markers in Tg2576 neurons: acetylated-tubulin; assay type: cell-based; settings: Mus musculus, Neuron, 48 h, treated two days, EC50 = 50% increase in acetylated-α-tubulin over basal, read-out: AcTub (EC50)
[2] = tested on: carboxyl terminal fragment AβPP (C99); assay: AD-related markers in Tg2576 neurons: APP processing (C99); assay type: cell-based; settings: Mus musculus, Neuron, 48 h, treated two days, EC50 = 50% decrease in C99 over basal
Method: The effects of the compounds on amyloid pathology were analysed in primary cultures (15 DIV) of neurons derived from the hippocampus and cortex of Tg2576 mouse embryos. Tg2576 mice express the human 695-aa isoform of APP (hAPP) containing the Swedish double mutation, which favours Aβ production. Neurons were treated for two days and collected at day 3, 24 h after the last treatment. First it was analysed the effect of the compounds on hAPP processing by the amyloidogenic pathway by measuring the carboxyl terminal fragment AβPP (C99), which is the precursor of Aβ42. In this case the reported EC50, Table 2 (below), means a 50% decrease in C99 levels over basal (saline, no treatment).
To analyze APP-derived fragments and p-tau levels in primary neuronal cultures, cells were collected in a buffer containing SDS (2%), Tris-HCl (10 mM, pH 7.4), protease inhibitors (1 mM PMSF and Complete Protease Inhibitor Cocktail: Roche Diagnostics) and phosphatase inhibitors (0.1 mM Na3VO4 and 1 mM NaF). The homogenates were sonicated for 2 min and centrifuged at 100,000×g for 1 h. Aliquots of the supernatant were frozen at −80° C. and their protein concentrations determined by the Bradford method using the Bio-Rad protein assay (Bio-Rad, Hercules, Calif., USA). Aliquots of the protein extracts were mixed with XT sample buffer plus XT reducing agent (Bio-Rad, Hercules, Calif., USA) and boiled for 5 min. Proteins were separated in a Criterion precast Bis-Tris 4-12% gradient precast gel (Bio-Rad, Hercules, Calif., USA) and transferred to a PVDF membrane with a removal rating of […] (Hybond LFP, Amersham Biosciences, Little Chalfont, UK). The membranes were blocked with 5% milk, 0.05% Tween-20 in PBS or TBS, and incubated overnight with the following primary antibodies in the corresponding buffers: mouse monoclonal anti-phosphotau AT8 (Pierce Biotechnology Inc., Rockford), mouse monoclonal anti-tau (clone Tau46, Sigma-Aldrich, St Louis, Mo.), 6E10 mouse monoclonal antibody (amino acids 1-17 of Aβ peptide; Millipore), mouse monoclonal anti-β-actin, mouse monoclonal anti-α-tubulin and mouse monoclonal anti-Acetylated-tubulin (Sigma). All antibodies were used at dilutions of 1:1,000 except for the mouse monoclonal anti-β-actin, anti-Acetylated-tubulin and anti-tubulin (1:50,000). Following two washes in TBS/Tween20 and one wash in TBS alone, immunolabelled protein bands were detected using HRP-conjugated anti-rabbit or anti-mouse antibodies (diluted 1:5,000: Santa Cruz). Binding was visualised by enhanced chemiluminescence (ECL, GE Healthcare Bioscience, Buckinghamshire, UK) and autoradiographic exposure to Hyperfilm ECL (GE Healthcare Bioscience), using Quantity One™ software v.4.6.3 (Bio-Rad) for quantification.

Sequence of HDAC1 (Q13547 whole entry): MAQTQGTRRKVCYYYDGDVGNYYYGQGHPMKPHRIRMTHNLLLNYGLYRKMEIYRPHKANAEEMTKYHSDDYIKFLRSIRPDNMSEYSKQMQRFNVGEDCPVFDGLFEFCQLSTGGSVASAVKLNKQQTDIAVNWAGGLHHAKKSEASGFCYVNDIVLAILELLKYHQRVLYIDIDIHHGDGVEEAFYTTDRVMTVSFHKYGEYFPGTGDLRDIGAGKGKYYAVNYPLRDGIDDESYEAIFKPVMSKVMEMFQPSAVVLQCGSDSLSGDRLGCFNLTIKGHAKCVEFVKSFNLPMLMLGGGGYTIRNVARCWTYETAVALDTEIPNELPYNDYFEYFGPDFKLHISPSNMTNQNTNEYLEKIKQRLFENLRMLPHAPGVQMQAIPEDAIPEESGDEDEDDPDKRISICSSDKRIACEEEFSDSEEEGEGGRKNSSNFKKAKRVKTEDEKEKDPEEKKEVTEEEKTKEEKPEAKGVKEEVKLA

IC50 (HDAC1) [nM] | IC50 (HDAC2) [nM] | IC50 (HDAC3) [nM] | EC50 (pCREB) [nM] | EC50 [1] [nM] | EC50 (acetylated-α-tubulin) [nM] | EC50 [2] [nM] | SMILES
10 to 1000 | 10 to 1000 | 10 to 1000 | 10 to 1000 | 10 to 1000 | 10 to 1000 | 10 to 1000 | CCCc1nn(C)c2c(=O)[nH]c(-c3cc(CC4CC(C(=O)NO)C4)ccc3OCC)nc12 (racemic) [Example 1-19, 3-[[4-ethoxy-3-(1-methyl-7-oxo-3-propyl-6H-pyrazolo[4,3-d]pyrimidin-5-yl)phenyl]methyl]cyclobutanecarbohydroxamic acid]
< 10 | 10 to 1000 | 10 to 1000 | 10 to 1000 | 10 to 1000 | 10 to 1000 | 10 to 1000 | CCCc1nn(C)c2c(=O)[nH]c(-c3cc(S(=O)(=O)N4CCN(c5ncc(C(=O)NO)cn5)CC4)ccc3OCC)nc12 [Example 1-06, 2-(4-[3-(6,7-Dihydro-1-methyl-7-oxo-3-propyl-1H-pyrazolo[4,3-d]pyrimidin-5-yl)-4-ethoxyphenylsulfonyl]piperazin-1-yl)-N-hydroxypyrimidine-5-carboxamide]
10 to 1000 | 1000 to 10000 | 1000 to 10000 | 10 to 1000 | 10 to 1000 | 10 to 1000 | 10 to 1000 | CCCc1nn(C)c2c(=O)[nH]c(-c3cc(Cc4ccc(C(=O)NO)cc4)ccc3OCC)nc12 [Example 1-15, 4-[[4-ethoxy-3-(1-methyl-7-oxo-3-propyl-6H-pyrazolo[4,3-d]pyrimidin-5-yl)phenyl]methyl]benzenecarbohydroxamic acid]
10 to 1000 | 1000 to 10000 | 1000 to 10000 | 10 to 1000 | 10 to 1000 | 10 to 1000 | 10 to 1000 | CCCc1nn(C)c2c(=O)[nH]c(-c3cc(Cc4ccc(C(=O)NO)s4)ccc3OCC)nc12 [Example 1-16]
